This is an account of results in US20230365592A1 (Agios Pharmaceuticals, Inc., priority 2022, published 2023).

The assay concerns the target T1, human PAH with the R408W mutation (Homo sapiens, UniProt P00439, R408W).
T1 construct: expressed in transfected cells
T1 sequence (P00439 1-452 R408W): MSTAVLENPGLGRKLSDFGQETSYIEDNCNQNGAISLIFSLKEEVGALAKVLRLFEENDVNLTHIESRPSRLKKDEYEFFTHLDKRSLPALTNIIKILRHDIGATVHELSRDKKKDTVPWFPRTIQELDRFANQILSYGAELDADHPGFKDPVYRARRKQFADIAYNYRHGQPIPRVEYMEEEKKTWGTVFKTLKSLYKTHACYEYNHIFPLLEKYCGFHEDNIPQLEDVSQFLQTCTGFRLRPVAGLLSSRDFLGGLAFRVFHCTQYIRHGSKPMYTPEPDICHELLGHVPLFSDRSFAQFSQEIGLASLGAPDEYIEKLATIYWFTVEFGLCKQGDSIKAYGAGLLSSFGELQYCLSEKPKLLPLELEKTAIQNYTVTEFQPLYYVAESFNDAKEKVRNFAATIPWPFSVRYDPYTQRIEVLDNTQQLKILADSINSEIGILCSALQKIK
The assay is described as follows: Cell Based Phenylalanine Flux Assay.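 Also: after compound treatment, cells received sepiapterin plus isotope-labelled Phenylalanine for 4 hours, then labelled Tyrosine in the medium was quantified, 10-point 2-fold dilution series run in duplicate.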 As to conditions: A375 cells expressing human R408W PAH; 24 hrs compound incubation; 13C-Tyrosine by LC-MS; average where tested multiple times; read-out: AC50.

By AC50 is commonly meant the midpoint of the concentration-response curve, whichever way the signal moves. On to `O=C(c1nnc(C2CCC2)o1)N1CCc2[nH]cnc2[C@@H]1c1cc2c(C(F)F)cccn2n1` [Example 1521, (R)-(5-cyclobutyl-1,3,4-oxadiazol-2-yl)(4-(4-(difluoromethyl)pyrazolo[1,5-a]pyridin-2-yl)-6,7-dihydro-1H-imidazo[4,5-c]pyridin-5(4H)-yl)methanone], for which the AC50 lay in the range of 1 to 5 µM.
In the case of `O=C(c1nnc(-c2cccnc2)o1)N1CCc2[nH]cnc2[C@H]1c1cc2cccc(F)n2n1` [Example 1522, (S)-(4-(7-fluoropyrazolo[1,5-a]pyridin-2-yl)-6,7-dihydro-1H-imidazo[4,5-c]pyridin-5(4H)-yl)(5-(pyridin-3-yl)-1,3,4-oxadiazol-2-yl)methanone] it was less than 0.5 µM; in that of `O=C(c1nnc(-c2cccnc2)o1)N1CCc2[nH]cnc2[C@@H]1c1cc2cccc(F)n2n1` [Example 1523, (R)-(4-(7-fluoropyrazolo[1,5-a]pyridin-2-yl)-6,7-dihydro-1H-imidazo[4,5-c]pyridin-5(4H)-yl)(5-(pyridin-3-yl)-1,3,4-oxadiazol-2-yl)methanone], more than 5 µM; in that of `COc1ccc(-c2nnc(C(=O)N3CCc4[nH]cnc4[C@@H]3c3cc4cccc(F)n4n3)o2)nc1` [Example 1524, (R)-(4-(7-fluoropyrazolo[1,5-a]pyridin-2-yl)-6,7-dihydro-1H-imidazo[4,5-c]pyridin-5(4H)-yl)(5-(5-methoxypyridin-2-yl)-1,3,4-oxadiazol-2-yl)methanone], more than 5 µM.
The value for `COc1ccc(-c2nnc(C(=O)N3CCc4[nH]cnc4[C@H]3c3cc4cccc(F)n4n3)o2)nc1` [Example 1525, (S)-(4-(7-fluoropyrazolo[1,5-a]pyridin-2-yl)-6,7-dihydro-1H-imidazo[4,5-c]pyridin-5(4H)-yl)(5-(5-methoxypyridin-2-yl)-1,3,4-oxadiazol-2-yl)methanone] was 0.5 to 1 µM; that for `Cn1nccc1-c1nnc(C(=O)N2CCc3[nH]cnc3[C@@H]2c2cc3cccc(F)n3n2)o1` [Example 1527, (R)-(4-(7-fluoropyrazolo[1,5-a]pyridin-2-yl)-6,7-dihydro-1H-imidazo[4,5-c]pyridin-5(4H)-yl)(5-(1-methyl-1H-pyrazol-5-yl)-1,3,4-oxadiazol-2-yl)methanone] was more than 5 µM.
The value for `Cc1cnn(C)c1-c1nnc(C(=O)N2CCc3[nH]cnc3[C@H]2c2cc3cccc(F)n3n2)o1` [Example 1528, (S)-(5-(1,4-dimethyl-1H-pyrazol-5-yl)-1,3,4-oxadiazol-2-yl)(4-(7-fluoropyrazolo[1,5-a]pyridin-2-yl)-6,7-dihydro-1H-imidazo[4,5-c]pyridin-5(4H)-yl)methanone] was less than 0.5 µM; that for `Cc1cc(-c2nnc(C(=O)N3CCc4[nH]cnc4[C@@H]3c3cc4c(C(F)F)cccn4n3)o2)nn1C` [Example 1530, (R)-(4-(4-(difluoromethyl)pyrazolo[1,5-a]pyridin-2-yl)-6,7-dihydro-1H-imidazo(4,5-c]pyridin-5(4H)-yl)(5-(1,5-dimethyl-1H-pyrazol-3-yl)-1,3,4-oxadiazol-2-yl)methanone] was more than 5 µM.
For `Cc1cc(-c2nnc(C(=O)N3CCc4[nH]cnc4[C@H]3c3cc4c(C(F)F)cccn4n3)o2)nn1C` [Example 1531, (S)-(4-(4-(difluoromethyl)pyrazolo[1,5-a]pyridin-2-yl)-6,7-dihydro-1H-imidazo[4,5-c]pyridin-5(4H)-yl)(5-(1,5-dimethyl-1H-pyrazol-3-yl)-1,3,4-oxadiazol-2-yl)methanone], the AC50 is less than 0.5 µM.
In the case of `Cn1nccc1-c1nnc(C(=O)N2CCc3[nH]cnc3[C@H]2c2cc3c(C(F)F)cccn3n2)o1` [Example 1532, (S)-(4-(4-(difluoromethyl)pyrazolo[1,5-a]pyridin-2-yl)-6,7-dihydro-1H-imidazo[4,5-c]pyridin-5(4H)-yl)(5-(1-methyl-1H-pyrazol-5-yl)-1,3,4-oxadiazol-2-yl)methanone] it was less than 0.5 µM; in that of `O=C(c1nnc(-c2cnccn2)o1)N1CCc2[nH]cnc2[C@@H]1c1cc2cccc(C(F)F)n2n1` [Example 1534, (R)-(4-(7-(difluoromethyl)pyrazolo[1,5-a]pyridin-2-yl)-6,7-dihydro-1H-imidazo[4,5-c]pyridin-5(4H)-yl)(5-(pyrazin-2-yl)-1,3,4-oxadiazol-2-yl)methanone], 1 to 5 µM.
The value for `Cc1cc(-c2nnc(C(=O)N3CCc4[nH]cnc4[C@H]3c3cc4cccc(C(F)F)n4n3)o2)nn1C` [Example 1537, (S)-(4-(7-(difluoromethyl)pyrazolo[1,5-a]pyridin-2-yl)-6,7-dihydro-1H-imidazo[4,5-c]pyridin-5(4H)-yl)(5-(1,5-dimethyl-1H-pyrazol-3-yl)-1,3,4-oxadiazol-2-yl)methanone] was 0.5 to 1 µM; that for `O=C(c1nnc(-c2cnn(C(F)(F)F)c2)o1)N1CCc2[nH]cnc2[C@H]1c1cc2c(C(F)(F)F)cccn2n1` [Example 1538, (S)-(5-(1-(trifluoromethyl)-1H-pyrazol-4-yl)-1,3,4-oxadiazol-2-yl)(4-(4-(trifluoromethyl)pyrazolo[1,5-a]pyridin-2-yl)-6,7-dihydro-1H-imidazo[4,5-c]pyridin-5(4H)-yl)methanone] was 0.5 to 1 µM; that for `O=C(c1nnc(-c2cnn(C(F)(F)F)c2)o1)N1CCc2[nH]cnc2[C@H]1c1cc2c(F)cccn2n1` [Example 1540, (S)-(4-(4-fluoropyrazolo[1,5-a]pyridin-2-yl)-6,7-dihydro-1H-imidazo[4,5-c]pyridin-5(4H)-yl)(5-(1-(trifluoromethyl)-1H-pyrazol-4-yl)-1,3,4-oxadiazol-2-yl)methanone] was 0.5 to 1 µM.
`O=C(c1nnc(-c2ccn(C(F)(F)F)n2)o1)N1CCc2[nH]cnc2[C@H]1c1cc2cccc(C(F)(F)F)n2n1` [Example 1542, (S)-(5-(1-(trifluoromethyl)-1H-pyrazol-3-yl)-1,3,4-oxadiazol-2-yl)(4-(7-(trifluoromethyl)pyrazolo[1,5-a]pyridin-2-yl)-6,7-dihydro-1H-imidazo[4,5-c]pyridin-5(4H)-yl)methanone]: the concentration at half-maximal activity (AC50) was in the range of 0.5 to 1 µM.
Take `O=C(c1nnc(-c2ccn(C(F)(F)F)n2)o1)N1CCc2[nH]cnc2[C@H]1c1cc2cccc(C(F)F)n2n1` [Example 1544, (S)-(4-(7-(difluoromethyl)pyrazolo[1,5-a]pyridin-2-yl)-6,7-dihydro-1H-imidazo[4,5-c]pyridin-5(4H)-yl)(5-(1-(trifluoromethyl)-1H-pyrazol-3-yl)-1,3,4-oxadiazol-2-yl)methanone]: the AC50 was less than 0.5 µM.
The value for `O=C(c1nnc(-c2ccn(C(F)(F)F)n2)o1)N1CCc2[nH]cnc2[C@@H]1c1cc2cccc(C(F)F)n2n1` [Example 1545, (R)-(4-(7-(difluoromethyl)pyrazolo[1,5-a]pyridin-2-yl)-6,7-dihydro-1H-imidazo[4,5-c]pyridin-5(4H)-yl)(5-(1-(trifluoromethyl)-1H-pyrazol-3-yl)-1,3,4-oxadiazol-2-yl)methanone] was 1 to 5 µM; that for `CN(C)Cc1ccc2c(C(=O)N3CCc4[nH]cnc4[C@H]3c3cc4c(C(F)(F)F)cccn4n3)cnn2c1` [Example 1546, (S)-(6-((dimethylamino)methyl)pyrazolo[1,5-a]pyridin-3-yl)(4-(4-(trifluoromethyl)pyrazolo[1,5-a]pyridin-2-yl)-6,7-dihydro-1H-imidazo[4,5-c]pyridin-5(4H)-yl)methanone] was 0.5 to 1 µM.
